The values below come from US20220370445A1, “METHODS FOR ADMINISTERING (R)-N-[4-(1,4,5,6-TETRAHYDRO-6-OXO-3-PYRIDAZINYL)PHENYL]ACETAMIDE” (ORION CORPORATION, priority 2019, published 2022).

The test system of one series is heart rate. Description: Effect of compound (I) alone or together with ivabradine on heart rate by oromucosal administration (telemetry). It is filed as in vivo, Beagle dogs. The procedure:
Male beagle dogs (n=3) were given a dose of compound (I) using oromucosal gel according to Formulation Example 3a alone (dosing period 1) or together with a dose of ivabradine using oromucosal gel according to Formulation Example 3c (dosing period 2). The dose of compound (I) was 18.5 μg/kg and the dose of ivabradine was 1 mg/kg (calculated as ivabradine base). Each dose was divided into two sites on gingival mucosa. The washout period between the dosing periods was at least 6 days. Heart rate of the animals was assesses at baseline and post-dosing using telemetry acquisition system.

Series [1] in a line: Local tolerance of compound (I) given by ocular, intranasal or oromucosal administration to dogs. The series is classed as in vivo. The following applies: any administration route (ocular, intranasal, oromucosal), Beagle dogs. As to the method:
Experiment 1. Bioavailability and Local Tolerance of Compound (I) Given by Ocular, Intranasal or Oromucosal Administration to Dogs.
(§1) Bioavailability of compound (I) given by ocular (4 μg/kg), intranasal (4 μg/kg) or oromucosal dosing (5 μg/kg) was compared to 4 μg/kg intravenous (i.v.) administration in Beagle dogs.
(§2) Composition of Formulation Example 1 was used for ocular administration, composition of Formulation Example 2 was used for intranasal administration and composition of Formulation Example 3 was used for oromucosal administration.
(§3) Ocular and intranasal doses were divided equally to both eyes or both nostrils. Oromucosal gel formulation was administered to buccal/gingival mucosa of the dog. The intravenous dose was administered in cephalic vein in slow i.v. bolus dosed within 30 seconds. Blood samples were collected into K2EDTA tubes over a 48 h period after each treatment at the following time points: predose, 2 min, 5 min, 10 min, 20 min, 30 min, 45 min, 1 h, 2 h, 4 h, 6 h, 8 h, 12 h, 24 h and 48 h post administration. Aliquots of plasma were prepared and stored frozen until analysis. Compound (I) concentration in plasma was determined using Liquid chromatography-triple quadrupole mass spectrometry. The lower limit of quantification for compound (I) in dog plasma was 0.1 ng/ml.

For series [2] the following is noted: in man; cited from earlier work.
The nature of series [3]: Bioavailability of compound (I) given by oropharyngeal aspiration to rats vs i.v. It is filed as in vivo, Male Sprague Dawley rats. The following applies: for bioavailability: male, Sprague Dawley, rat, plasma, other: oropharyngeal aspiration, read-out: bioavailability of oropharyngeal administration. The procedure:
Oropharyngeal aspiration administration has been developed as an alternative technique for the inhaled delivery of medicaments to the lungs and provides a means to mimic human lung exposure of medicaments by inhalation (Hulland, K. et al., American Journal of Respiratory and Critical Care Medicine 2016, 193:A5928 and Barbayianni, I. et al., Frontiers of Medicine, September 2018, Vol 5, Article 269, 1-6).
Bioavailability of compound (I) given by oropharyngeal aspiration (dosing 10 or 20 μg/kg) was compared to 10 μg/kg intravenous (i.v.) administration in Male Sprague Dawley rats.
Composition for oropharyngeal dosing was as follows:
The oropharyngeal dose was administered to animals which were lightly anaesthetized by isoflurane inhalation. The animals were placed on a vertical stand the top teeth hooked over a rubber band to open the mouth. The 100 μl dose was dispensed by positive displacement pipette at the back of the throat of the animal while holding the tongue to prevent swallowing and nose held to encourage breathing through the mouth for (at least) 3 breaths. The nose released but tongue continually held for an additional couple of breaths to ensure solution deposited in the lungs and not swallowed. All animals recovered consciousness post dose.
The intravenous dose was administered as a slow bolus injection over 30 seconds via the lateral tail vein.
Blood samples were collected into a K2EDTA tube such as to obtain a sample after 5 min, 15 min, 30 min, 1 h, 3 h, 5 h, 8 h, 12 h, 24 h and 48 h post administration.
Aliquots of plasma were prepared and stored frozen until analysis. Compound (I) concentration in plasma was determined using a liquid chromatography-tandem mass spectrometry (LC-MS/MS). The lower limit of quantification for compound (I) in rat plasma was 0.02 ng/ml.

The nature of series [4]: Bioavailability of compound (I) by ocular, intranasal or oromucosal administration vs i.v. in dogs. The following applies: Beagle dogs; for bioavailability: dog, plasma, n=6. The series is classed as in vivo. The procedure: as §1
The study was a crossover study with at least 6 days washout period between the treatment periods. The animals were fasted overnight before dosing by withdrawing the remaining feed (if any) at least 12 h before dosing. On dosing days, food was offered approximately at 4 h after dosing (after the 4 h blood sampling).
as §2, §3

Each structure is given as a SMILES string. Where a name gives a salt, the structure may show the parent alone.

With `CC(=O)Nc1ccc(C2=NNC(=O)C[C@H]2C)cc1` [Compound (I), (R)—N-[4-(1,4,5,6-tetrahydro-4-methyl-6-oxo-3-pyridazinyl)phenyl]acetamide], the “heart rate after dosing” value in the series on heart rate (oromucosal gel 18.5 μg/kg alone, male beagle dogs n=3, baseline 93±9 bpm) was 167±8 bpm. Moreover, the “irritation (local tolerance)” value in series [1] was “No significant irritation”. Also, the elimination half-life result in series [2] is “about 72 h”. The bioavailability in series [3] (oropharyngeal 0.01 mg/kg vs 0.01 mg/kg i.v.) was found to be 94.9%; in series [3] (oropharyngeal 0.02 mg/kg vs 0.01 mg/kg i.v.), 97.1%; in series [4] (other: intranasal (drops), 4 ug/kg, intranasal drops 4 μg/kg vs 4 μg/kg i.v.), 82%; in series [4] (other: ocular (eye drops), 4 ug/kg, eye drops, ocular 4 μg/kg vs 4 μg/kg i.v.) it was 67%; in series [4] (other: oromucosal (gel to buccal/gingival mucosa), 5 ug/kg, oromucosal gel 5 μg/kg vs 4 μg/kg i.v.), 78%. Further, the absorption result in series [3] (oropharyngeal route) is “fast absorption comparable to intravenous administration”; in series [4] (ocular drops, intranasal drops or oromucosal gel) it was “fast absorption comparable to intravenous administration”.
On to `COc1cc2c(cc1OC)CC(=O)N(CCCN(C)C[C@H]1Cc3cc(OC)c(OC)cc31)CC2` [ivabradine hydrochloride, reference compound], for which the “prevention of heart rate increase induced by compound (I)” value with heart rate (oromucosal 1 mg/kg concurrent with compound (I) 18.5 μg/kg oromucosal, beagle dogs) is given as “completely prevent the heart rate increase”.
